Experimental data: the NIST ThermoML archive (doi:10.1016/j.jct.2007.06.014)

Assay: xn = mol fraction of the nth substance listed
Settings: Liquid, Bellows volumetry

CCCC [butane] + CCC
mass density [kg/m3]
Settings	360 K	380 K	400 K	420 K	440 K
5000 kPa, x2 = 0.2729	–	–	398.7	–	–
5000 kPa, x2 = 0.5021	–	415.53	–	–	–
10000 kPa, x2 = 0.2729	–	–	441.29	–	365.44
10000 kPa, x2 = 0.5021	–	449.59	415.12	374.84	–
10000 kPa, x2 = 0.7308	–	–	383.18	–	–
20000 kPa, x2 = 0.2729	–	–	481.03	–	435.74
20000 kPa, x2 = 0.5021	507.83	485.35	462.03	438.42	414.16
20000 kPa, x2 = 0.7308	488.73	–	440.67	–	389.82
30000 kPa, x2 = 0.2729	542.33	–	505.41	–	469.11
30000 kPa, x2 = 0.5021	527.21	508.03	488.88	469.92	451.25
30000 kPa, x2 = 0.7308	509.86	–	470.45	–	431.31
40000 kPa, x2 = 0.2729	556.62	–	523.61	–	492.08
40000 kPa, x2 = 0.5021	542.25	525.24	508.28	491.93	475.9
40000 kPa, x2 = 0.7308	526.15	–	491.38	–	458.02
50000 kPa, x2 = 0.2729	568.47	–	538.25	–	509.82
50000 kPa, x2 = 0.5021	554.89	539.26	523.78	509	494.74
50000 kPa, x2 = 0.7308	539.49	–	507.84	–	478.11
60000 kPa, x2 = 0.2729	578.91	–	550.71	–	524.44
60000 kPa, x2 = 0.5021	565.84	551.17	536.84	523.17	510.12
60000 kPa, x2 = 0.7308	550.83	–	521.54	–	494.23
70000 kPa, x2 = 0.2729	588.2	–	561.45	–	537.02
70000 kPa, x2 = 0.5021	575.48	561.44	548.1	535.32	523.11
70000 kPa, x2 = 0.7308	561.04	–	533.25	–	507.76
80000 kPa, x2 = 0.2729	596.65	–	571.06	–	547.99
80000 kPa, x2 = 0.5021	584.07	570.85	558.01	546.03	534.41
80000 kPa, x2 = 0.7308	570.01	–	543.56	–	519.7
90000 kPa, x2 = 0.2729	604.5	–	579.66	–	557.71
90000 kPa, x2 = 0.5021	592.03	579.23	567.04	555.52	544.56
90000 kPa, x2 = 0.7308	578.24	–	552.92	–	530.16
100000 kPa, x2 = 0.2729	611.65	–	587.69	–	566.67
100000 kPa, x2 = 0.5021	598.96	587	575.06	564.2	553.96
100000 kPa, x2 = 0.7308	585.56	–	561.28	–	539.53
120000 kPa, x2 = 0.2729	624.31	–	601.92	–	582.31
120000 kPa, x2 = 0.5021	612.34	600.73	589.51	579.48	569.97
120000 kPa, x2 = 0.7308	599.05	–	576.29	–	556.04
140000 kPa, x2 = 0.2729	635.59	–	614.15	–	595.88
140000 kPa, x2 = 0.5021	623.77	612.71	602.26	592.86	583.79
140000 kPa, x2 = 0.7308	610.8	–	589.3	–	570.27
160000 kPa, x2 = 0.2729	645.73	–	625.33	–	607.79
160000 kPa, x2 = 0.5021	634.07	623.67	613.48	604.42	596.12
160000 kPa, x2 = 0.7308	621.39	–	600.76	–	582.77
180000 kPa, x2 = 0.2729	654.77	–	635.3	–	618.69
180000 kPa, x2 = 0.5021	643.46	633.32	623.72	615.03	606.9
180000 kPa, x2 = 0.7308	630.95	–	611.22	–	593.99
200000 kPa, x2 = 0.2729	663.07	–	644.44	–	628.49
200000 kPa, x2 = 0.5021	652.2	642.49	632.92	624.5	616.83
200000 kPa, x2 = 0.7308	639.82	–	620.55	–	604.14
